# Laboratory results from patent US6613889B2, “Method for preparing salts of polyene macrolide esters” (BioSource Pharm, Inc., priority 2001, dated 2003).
# Experiments:
# [1] = at pH levels less than 4.0; cited from earlier work
# solubility in water = assay type: physicochemical; settings: freeze-dried yellow powder
# Description: In order to facilitate removal of the aldehyde protective group of the Schiff base and to form the salt of the liberated free base ester, the Schiff base is stirred in water overnight, centrifuged and the insoluble product dried by lyophilization. HPLC and 300 Mhz NMR indicate that the product contains some p-chlorobenzaldehyde and is usually about a 50/50 mixture of the desired methyl ester and the corresponding Schiff base. The mixture is stirred in ethyl acetate to remove the excess aldehyde. The product is then dissolved in a solvent which is inert to the materials, is miscible with water, and can be removed from an aqueous solution as an azeotrope. Tetrahydrofuran or acetonitrile fulfil these requirements. […] A solution of amphotericin B methyl ester Schiff base/free base in tetrahydrofuran is diluted with water to approximately 75% THF but maintained in solution. To this solution is added dilute hydrochloric acid until the appropriate pH is reached. This causes the hydrolysis of the Schiff base and forms the hydochloride salt of amphotericin B methyl ester. The tetrahydrofuran is then removed as an azeotrope with water to obtain an aqueous solution of the AME.HCl and some insoluble material containing part of the aldehyde. The residual aldehyde in the aqueous solution of the AME.HCl is an impurity which can not be readily removed by filtration, centrifuging, or solvent extraction. […]
# pH of a 1% solution = assay type: physicochemical
# Method: A mixture of amphotericin B methyl ester and its p-chlorobenzilidine derivative (1.029 g) was dissolved in 40 ml o THF/H2O (4/1) and 0.90 ml of 1.0 M acetic acid solution was added dropwise. Water (40 ml) was added and THF was removed as an azeotrope at reduced pressure and 40° C. The resulting aqueous solution was passed through a column of Amberlite® XAD-2, then freeze-dried to afford 0.654 g of the acetate salt: E^1%1 cm=1100 at 382 nm in MeOH; a 1% solution had pH 5.30.
smiles,measurement,setting,value
"COC(=O)[C@H]1[C@@H]2C[C@@H](O[C@@H]3O[C@H](C)[C@@H](O)[C@H](N)[C@@H]3O)/C=C/C=C/C=C/C=C/C=C/C=C/C=C/[C@H](C)[C@@H](O)[C@@H](C)[C@H](C)OC(=O)C[C@H](O)C[C@H](O)CC[C@@H](O)[C@H](O)C[C@H](O)C[C@](O)(C[C@@H]1O)O2 [AME, amphotericin B methyl ester]",stability,[1],very unstable
"COC(=O)[C@H]1[C@@H]2C[C@@H](O[C@@H]3O[C@H](C)[C@@H](O)[C@H](N)[C@@H]3O)/C=C/C=C/C=C/C=C/C=C/C=C/C=C/[C@H](C)[C@@H](O)[C@@H](C)[C@H](C)OC(=O)C[C@H](O)C[C@H](O)CC[C@@H](O)[C@H](O)C[C@H](O)C[C@](O)(C[C@@H]1O)O2.Cl [AME.HCl, amphotericin B methyl ester hydrochloride]",solubility in water,solubility in water,highly soluble
CC(=O)O.COC(=O)C1C(O)CC2(O)CC(O)CC(O)C(O)CCC(O)CC(O)CC(=O)OC(C)C(C)C(O)C(C)C=CC=CC=CC=CC=CC=CC=CC(OC3OC(C)C(O)C(N)C3O)CC1O2 (stereo not drawn) [Amphotericin B Methyl Ester Acetate],pH of solution,pH of a 1% solution,5.30
